“Also recorded” adds a separate entry of the source. Non-standard residues stand in square brackets, D forms with d. Residues, ends and D or L forms follow the SMILES beside them. No end group written: not given here. *: point of attachment. FITC = O=C1OC2(c3ccc(O)cc3Oc3cc(O)ccc32)c2ccc(NC(=S)*)cc21; pT = C[C@@H](OP(=O)(O)O)[C@H](N)C(=O)O; pS = N[C@@H](COP(=O)(O)O)C(=O)O
Assays:
14-3-3γ (gamma) = 14-3-3γ (gamma) (Homo sapiens, UniProt P61981); assay type: binding
[1] = tested on: all seven human 14-3-3 isoforms; assay type: binding
14-3-3σ (sigma) = 14-3-3σ (sigma) (Homo sapiens, UniProt P31947); assay type: binding
14-3-3γ = 14-3-3γ (Homo sapiens, UniProt P61981); assay type: binding
[2] = molecular target: T1, Untagged full-length human 14-3-3γ (human, UniProt P61981 1-247); experiment: fluorescence polarisation
T1 sequence: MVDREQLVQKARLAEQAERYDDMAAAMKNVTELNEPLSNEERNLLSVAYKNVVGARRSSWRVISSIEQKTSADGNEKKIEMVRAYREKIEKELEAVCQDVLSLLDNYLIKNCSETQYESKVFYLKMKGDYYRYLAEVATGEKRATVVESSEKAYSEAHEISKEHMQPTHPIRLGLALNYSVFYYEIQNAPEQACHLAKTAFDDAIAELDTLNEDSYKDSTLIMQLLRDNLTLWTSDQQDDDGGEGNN

crystal structure = molecular target: the molecule itself; experiment: crystal structure

Sequence of 14-3-3σ (sigma) (P31947 whole entry): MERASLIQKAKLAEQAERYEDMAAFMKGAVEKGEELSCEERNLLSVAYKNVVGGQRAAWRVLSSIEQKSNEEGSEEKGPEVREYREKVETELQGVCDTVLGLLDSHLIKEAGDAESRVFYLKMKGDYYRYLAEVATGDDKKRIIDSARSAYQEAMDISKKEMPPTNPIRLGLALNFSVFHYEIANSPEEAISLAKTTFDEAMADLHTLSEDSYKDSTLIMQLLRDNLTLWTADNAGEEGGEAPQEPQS

Molecule: O=C1OC2(c3ccc(O)cc3Oc3cc(O)ccc32)c2ccc(N=C=S)cc21 [free FITC, fluorescein 5-isothiocyanate, reference compound]
- Binding to MBP-14-3-3 (free FITC control) (14-3-3γ (gamma)): did not show significant binding

Molecule: CSCC[C@H](NC(=O)[C@H](CCCNC(=N)N)NC(=O)[C@H](C)NC(=O)[C@@H]1CCCN1C(=O)[C@H](CO)NC(=O)[C@@H](NC(=O)CNC(=O)[C@H](CCCNC(=N)N)NC(=O)[C@H](CO)NC(=O)[C@H](CO)NC(=O)[C@H](Cc1c[nH]c2ccccc12)NC(=S)Nc1ccc2c(c1)C(=O)OC21c2ccc(O)cc2Oc2cc(O)ccc21)[C@@H](C)OP(=O)(O)O)C(=O)O [pT205] ({FITC}-WSSRG[pT]SPARM-OH)
- Affinity preference [1]: preferred over the pS197-motif by all seven human 14-3-3 isoforms; also recorded: consistently tighter affinity than the pS197 fragment
- KD ratio between weakest (14-3-3σ/pS197) and strongest (14-3-3γ/pT205) pair [1]: ~10 fold
- Order of affinity over the 14-3-3 isoforms [1]: gamma (γ) > eta (η) > beta (β) > epsilon (ε) > zeta (ζ) > tau (τ) > sigma (σ)
- Ratio of the average KD values pS197/pT205 [1]: 4.3 fold
- Selectivity coefficient (KD pS197 / KD pT205), gamma (14-3-3γ (gamma)): ~7
- Ratio: affinity of 14-3-3σ to pT205 versus pS197 peptide (14-3-3σ (sigma)): ~3 times tighter

Molecule: WLRRApSAPLPGLK [pB6]
- Displacement of FITC-labeled peptide from 14-3-3 (14-3-3γ): could be disrupted

Molecule: WLRRA[pS]APLPGLK [Unlabeled phosphopeptide of human HSPB6 (pB6) WLRRApSAPLPGLK]
- binding result [2]: binds

B1: C-terminally truncated human 14-3-3σ (residues 1–231) Clu3 mutant (75EEK77 → 75AAA77) (domain or fragment)
chain: MERASLIQKAKLAEQAERYEDMAAFMKGAVEKGEELSCEERNLLSVAYKNVVGGQRAAWRVLSSIEQKSNEEGSAAAGPEVREYREKVETELQGVCDTVLGLLDSHLIKEAGDAESRVFYLKMKGDYYRYLAEVATGDDKKRIIDSARSAYQEAMDISKKEMPPTNPIRLGLALNFSVFHYEIANSPEEAISLAKTTFDEAMADLHTLSEDSYKDSTLIMQLLRDNLTLWT
- stoichiometry N (crystal structure): 2

B2: C-terminally truncated human 14-3-3σ (residues 1–231) Clu1 mutant (159KKE161 → 159AAA161) (domain or fragment)
chain: MERASLIQKAKLAEQAERYEDMAAFMKGAVEKGEELSCEERNLLSVAYKNVVGGQRAAWRVLSSIEQKSNEEGSEEKGPEVREYREKVETELQGVCDTVLGLLDSHLIKEAGDAESRVFYLKMKGDYYRYLAEVATGDDKKRIIDSARSAYQEAMDISAAAMPPTNPIRLGLALNFSVFHYEIANSPEEAISLAKTTFDEAMADLHTLSEDSYKDSTLIMQLLRDNLTLWT
- stoichiometry N (crystal structure): 2

Source: publication PMC9683861 (Journal of Molecular Biology, 2022)
